Measured values taken from patent US20240239767A1 (AstraZeneca AB, priority 2022, published 2024).

Experiments:
[1] = biological target: GSK3b (Glycogen synthase kinase-3 beta) (Homo sapiens, UniProt P49841); assay: Assay 6 - GSK3b assay (ThermoFisher, FRET Z-Lyte); format: biochemical; settings: geometric mean; ATP Conc: 10.000 μM; read-out: Assay 6 (GSK3B FRET-Z-Lyte CR) GMean IC50 (μM) ATP Conc: 10.000
Protocol: This assay measures the activity of the compounds at GSK3b (Glycogen synthase kinase-3 beta).
The test compounds were screened in 1% DMSO (final) in the well. For 10-point titrations, 3-fold serial dilutions are conducted from the starting concentration of 10 μM.
• Bar-coded Corning, low volume NBS, black 384-well plate • 1. 2.5 μL—4× Test Compound or 100 nL 100× plus 2.4 μL kinase buffer • 2. 5 μL—2× Peptide/Kinase Mixture • 3. 2.5 μL—4× ATP Solution • 4. 30-second plate shake • 5. 60-minute Kinase Reaction incubation at room temperature • 6. 5 μL—Development Reagent Solution • 7. 30-second plate shake • 8. 60-minute Development Reaction incubation at room temperature • 9. Read on fluorescence plate reader and analyse the data
In step 2, the 2× GSK3β (GSK3 beta)/Ser/Thr (Glycogen synthase kinase-3 beta/Serine/Threonine) 09 mixture is prepared in 50 mM HEPES (4-(2-hydroxyethyl)-1-piperazineethanesulfonic acid) pH 7.5, 0.01% BRIJ-35, 10 mM MgCl2, 1 mM EGTA (egtazic acid). The final 10 μL Kinase Reaction consists of 0.22-0.92 ng GSK3β (GSK3 beta) and 2 μM Ser/Thr 09 in 50 mM HEPES pH 7.5, 0.01% BRIJ-35, 10 mM MgCl2, 1 mM EGTA.
In step 3 the ATP Solution is diluted to a 4× working concentration in Kinase Buffer (50 mM HEPES pH 7.5, 0.01% BRIJ-35, 10 mM MgCl2, 1 mM EGTA).
In Step 6 the Development Reagent is diluted 1:512 in Development Buffer (10× Novel PKC Lipid Mix: 2 mg/mL Phosphatidyl Serine, 0.2 mg/mL DAG in 20 mM HEPES, pH 7.4, 0.3% CHAPS).
SelectScreen® Kinase Profiling Service uses XLfit from IDBS. The dose response curve is curve fit to model number 205 (sigmoidal dose-response model).

[2] = biological target: PCSK9 (Homo sapiens, UniProt Q8NBP7, G670E/V474I); assay: biochemical
Chain of PCSK9 (Q8NBP7 with tags, fused parts or gaps V474I/G670E): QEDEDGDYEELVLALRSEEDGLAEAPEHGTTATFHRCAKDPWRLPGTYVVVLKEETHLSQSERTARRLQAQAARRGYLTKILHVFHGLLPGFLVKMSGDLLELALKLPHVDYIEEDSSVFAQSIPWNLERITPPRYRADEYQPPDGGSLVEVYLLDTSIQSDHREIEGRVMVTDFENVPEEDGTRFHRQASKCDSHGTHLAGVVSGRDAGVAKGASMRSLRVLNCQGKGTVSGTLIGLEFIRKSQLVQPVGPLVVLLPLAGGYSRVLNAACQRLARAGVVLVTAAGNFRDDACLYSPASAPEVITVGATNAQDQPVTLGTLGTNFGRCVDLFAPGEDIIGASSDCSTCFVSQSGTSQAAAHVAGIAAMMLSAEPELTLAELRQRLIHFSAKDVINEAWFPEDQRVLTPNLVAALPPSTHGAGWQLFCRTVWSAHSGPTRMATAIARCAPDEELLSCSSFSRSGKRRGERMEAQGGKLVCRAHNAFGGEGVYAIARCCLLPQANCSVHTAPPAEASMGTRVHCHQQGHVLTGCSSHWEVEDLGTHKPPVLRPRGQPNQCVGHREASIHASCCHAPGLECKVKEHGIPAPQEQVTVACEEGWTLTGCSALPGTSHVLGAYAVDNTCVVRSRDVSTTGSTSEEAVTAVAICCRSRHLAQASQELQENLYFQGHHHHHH

[3] = biological target: T1, potassium ion channel hERG (human Ether-á-go-go-Related Gene) (Homo sapiens, UniProt Q12809); assay: Assay 5 - hERG assay (SyncroPatch 384PE patch clamp, CHO cells); format: cell-based; settings: geometric mean, CHO cells over-expressing hERG, read-out: Assay 5 (hERG Hu CHO IF EPh CR-Syncro) GMean IC50
T1 construct: expressed in transfected cells; host or cells: Chinese hamster ovary K1 (CHO)
T1 sequence (Q12809 whole entry): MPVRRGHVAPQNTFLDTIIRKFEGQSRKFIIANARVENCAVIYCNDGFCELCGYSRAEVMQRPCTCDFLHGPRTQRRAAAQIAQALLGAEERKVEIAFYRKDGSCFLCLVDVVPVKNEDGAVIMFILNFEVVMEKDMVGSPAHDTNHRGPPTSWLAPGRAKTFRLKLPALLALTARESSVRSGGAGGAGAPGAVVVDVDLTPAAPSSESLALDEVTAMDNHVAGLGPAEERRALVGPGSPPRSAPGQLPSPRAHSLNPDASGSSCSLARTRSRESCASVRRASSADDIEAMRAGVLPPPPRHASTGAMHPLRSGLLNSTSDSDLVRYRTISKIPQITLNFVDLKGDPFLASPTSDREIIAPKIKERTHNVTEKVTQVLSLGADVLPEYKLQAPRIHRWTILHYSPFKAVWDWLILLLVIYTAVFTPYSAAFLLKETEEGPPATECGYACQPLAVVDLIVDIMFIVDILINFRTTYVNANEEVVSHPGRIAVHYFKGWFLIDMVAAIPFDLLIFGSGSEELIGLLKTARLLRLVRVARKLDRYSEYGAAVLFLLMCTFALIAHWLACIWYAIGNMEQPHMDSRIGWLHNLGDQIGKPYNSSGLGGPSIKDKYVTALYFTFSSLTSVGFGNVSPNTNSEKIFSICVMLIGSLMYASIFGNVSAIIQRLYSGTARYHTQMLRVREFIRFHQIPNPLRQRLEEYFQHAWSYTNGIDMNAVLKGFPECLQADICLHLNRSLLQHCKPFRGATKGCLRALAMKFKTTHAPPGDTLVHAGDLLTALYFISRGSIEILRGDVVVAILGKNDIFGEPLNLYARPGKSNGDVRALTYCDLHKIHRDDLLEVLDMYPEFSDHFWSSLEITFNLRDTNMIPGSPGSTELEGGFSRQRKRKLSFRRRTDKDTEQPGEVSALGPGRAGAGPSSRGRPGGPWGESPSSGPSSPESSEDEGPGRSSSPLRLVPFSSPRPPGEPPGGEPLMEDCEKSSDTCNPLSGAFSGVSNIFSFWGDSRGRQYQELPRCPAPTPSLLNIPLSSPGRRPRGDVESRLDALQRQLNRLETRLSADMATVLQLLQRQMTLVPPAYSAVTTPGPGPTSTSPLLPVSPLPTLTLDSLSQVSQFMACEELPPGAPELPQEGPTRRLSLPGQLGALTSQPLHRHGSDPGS
Protocol: Assay 5—hERG Assay (Human Ether-á-go-go-Related Gene)
This assay (human Ether-á-go-go-Related Gene) measures activity of the compounds at the potassium ion channel hERG (human Ether-á-go-go-Related Gene).
Experiments were performed on the SyncroPatch 384PE high throughput patch clamp platform at room temperature and medium resistance chips with 4 patch holes per site. Chinese hamster ovary K1 (CHO) cell lines over-expressing the ion channel of choice (hERG) were used in assay-ready format and kept in liquid nitrogen or were used from live culture. Cells were either thawed and diluted in HBSS or were detached from flasks and resuspended in HBSS. HBSS comprised 140 mM NaCl, 4 mM KCl, 10 mM HEPES and 5 mM Glucose (pH 7.4). The internal patch clamp solution was KF 120 mM, KCl 20 mM, HEPES 10 mM, EGTA 10 mM, and 25 μM Escin (pH 7.2). After the sealing process was complete, the external solution was exchanged for external patch clamp solution comprising NaCl 80 mM, KCl 4 mM, HEPES 10 mM, CaCl2 2 mM, MgCl2 1 mM, glucose 5 mM, and NMDG 60 mM (pH 7.4). All solutions were stored at room temperature, except Escin, which was stored at 4° C. All test compounds were dispensed in greiner-bio 384 well plates and tested in a 6 point cumulative assay (final DMSO concentration 0.33%). Only wells that passed previously agreed acceptance criteria for this platform were used in this analysis (30 MegaOhm seal resistance, Z prime>0.4 and current size>0.2 nA).

Chain of GSK3b (Glycogen synthase kinase-3 beta) (P49841 whole entry): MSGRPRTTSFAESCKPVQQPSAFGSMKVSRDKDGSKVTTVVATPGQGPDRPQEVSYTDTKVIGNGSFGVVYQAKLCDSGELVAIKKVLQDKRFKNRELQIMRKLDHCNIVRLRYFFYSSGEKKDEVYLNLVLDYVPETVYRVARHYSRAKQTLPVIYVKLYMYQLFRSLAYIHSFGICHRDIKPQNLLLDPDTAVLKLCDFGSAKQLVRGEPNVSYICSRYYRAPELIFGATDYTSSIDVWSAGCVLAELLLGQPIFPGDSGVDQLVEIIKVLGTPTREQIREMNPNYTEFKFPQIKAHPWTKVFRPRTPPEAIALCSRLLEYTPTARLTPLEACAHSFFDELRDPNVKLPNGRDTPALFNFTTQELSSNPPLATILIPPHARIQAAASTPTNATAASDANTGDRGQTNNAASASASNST

| SMILES | IC50 [1] [µM] | IC50 [2] [µM] | IC50 [3] [µM] |
| --- | --- | --- | --- |
| Fc1cccc(OC(F)(F)F)c1-c1ccc(N[C@H]2CC[C@H](Nc3nc4cccnc4[nH]3)C2)nc1 [Example 70, (1S,3S)—N^1-(5-(2-Fluoro-6-(trifluoromethoxy)phenyl)pyridin-2-yl)-N^3-(3H-imidazo[4,5-b]pyridin-2-yl)cyclopentane-1,3-diamine] | > 10 | 0.0244 | – |
| O=c1ccccn1-c1ccc(N[C@H]2CC[C@H](Nc3nc4cc(CO)cnc4s3)C2)nc1 [Compound 88] | > 10 | 0.0099 | > 40.1 |
| O=c1ccccn1-c1ccc(N[C@H]2CC[C@H](Nc3nc4ccc(Br)cc4o3)C2)nc1 [Example 3, 6′-(((1S,3S)-3-((6-Bromobenzo[d]oxazol-2-yl)amino)cyclopentyl)amino)-2H-[1,3′-bipyridin]-2-one] | > 10 | 0.0082 | 4.2 |
| Cn1c(=O)n(-c2ccc(N[C@H]3CC[C@H](Nc4nc5cccnc5[nH]4)C3)nc2)c2ncccc21 [Example 45, 3-(6-(((1S,3S)-3-((3H-Imidazo[4,5-b]pyridin-2-yl)amino)cyclopentyl)amino)pyridin-3-yl)-1-methyl-1,3-dihydro-2H-imidazo[4,5-b]pyridin-2-one] | > 10 | – | > 40 |
| COc1ccnc2[nH]c(N[C@H]3CC[C@H](Nc4ccc(-n5ccccc5=O)cn4)C3)nc12 [Example 27, 6′-(((1S,3S)-3-((7-Methoxy-3H-imidazo[4,5-b]pyridin-2-yl)amino)cyclopentyl)amino)-2H-[1,3′-bipyridin]-2-one] | 2.49 | 0.049 | > 40 |
| O=c1ccccn1-c1ccc(N[C@H]2CC[C@H](Nc3nc4ccc(Br)cc4s3)C2)nc1 [Example 6, 6′-(((1S,3S)-3-((6-Bromobenzo[d]thiazol-2-yl)amino)cyclopentyl)amino)-2H-[1,3′-bipyridin]-2-one] | > 10 | 2.73 | 2.64 |
| O=C1CN(c2ccc(N[C@H]3CC[C@H](Nc4nc5cccnc5[nH]4)C3)nc2)C(=O)N1 [Example 65, 1-(6-(((1S,3S)-3-((3H-Imidazo[4,5-b]pyridin-2-yl)amino)cyclopentyl)amino)pyridin-3-yl)imidazolidine-2,4-dione] | 8.19 | 0.0078 | > 40 |
| O=c1ccccn1-c1ccc(N[C@H]2CC[C@H](Nc3nc4cccnc4[nH]3)C2)cc1 [Example 74, 1-(4-(((1S,3S)-3-((3H-Imidazo[4,5-b]pyridin-2-yl)amino)cyclopentyl)amino)phenyl)pyridin-2(1H)-one] | > 10 | 0.173 | > 40 |
| CP(C)(=O)c1cnc2[nH]c(N[C@H]3CC[C@H](Nc4ccc(-n5ccccc5=O)cn4)C3)nc2c1 [Example 58, 6′-(((1S,3S)-3-((6-(Dimethylphosphoryl)-3H-imidazo[4,5-b]pyridin-2-yl)amino)cyclopentyl)amino)-2H-[1,3′-bipyridin]-2-one] | – | 0.22 | > 40 |
| Cc1ncc(-c2ccc(=O)n(-c3ccc(N[C@H]4CC[C@H](Nc5nc6cccnc6[nH]5)C4)nc3)c2)cn1 [Example 53, 6′-(((1S,3S)-3-((3H-Imidazo[4,5-b]pyridin-2-yl)amino)cyclopentyl)amino)-5-(2-methylpyrimidin-5-yl)-2H-[1,3′-bipyridin]-2-one] | 3.86 | 0.019 | > 40 |
| O=c1ccccn1-c1ccc(N[C@H]2CC[C@H](Nc3nc4ccccc4o3)C2)nc1 [Example 1, 6′-(((1S,3S)-3-(Benzo[d]oxazol-2-ylamino)cyclopentyl)amino)-2H-[1,3′-bipyridin]-2-one] | > 10 | 0.0343 | > 40 |
| COc1ccccc1-c1ccc(N[C@H]2CC[C@H](Nc3nc4cccnc4[nH]3)C2)nc1 [Example 66, (1S,3S)—N^1-(3H-Imidazo[4,5-b]pyridin-2-yl)-N^3-(5-(2-methoxyphenyl)pyridin-2-yl)cyclopentane-1,3-diamine] | > 10 | 0.166 | 1.94 |
| Fc1ccccc1-c1ccc(N[C@H]2CC[C@H](Nc3nc4cccnc4[nH]3)C2)nc1 [Example 69, (1S,3S)—N^1-(5-(2-Fluorophenyl)pyridin-2-yl)-N^3-(3H-imidazo[4,5-b]pyridin-2-yl)cyclopentane-1,3-diamine] | > 10 | 0.083 | 1.17 |
| Fc1cccc(OC(F)F)c1-c1ccc(N[C@H]2CC[C@H](Nc3nc4cccnc4[nH]3)C2)nc1 [Example 32, (1S,3S)—N^1-(5-(2-(Difluoromethoxy)-6-fluorophenyl)pyridin-2-yl)-N^3-(3H-imidazo[4,5-b]pyridin-2-yl)cyclopentane-1,3-diamine] | > 10 | 0.021 | 2.22 |
| O=c1ccccn1-c1ccc(N[C@H]2CC[C@H](Nc3nc4ccc(OC(F)F)cc4o3)C2)nc1 [Example 85, 6′-(((1S,3S)-3-((6-(Difluoromethoxy)benzo[d]oxazol-2-yl)amino)cyclopentyl)amino)-2H-[1,3′-bipyridin]-2-one] | – | 0.0146 | – |
| Cn1cccc(-c2cnc(N[C@H]3CC[C@H](Nc4nc5cccnc5[nH]4)C3)cn2)c1=O [Example 75, 3-(5-(((1S,3S)-3-((3H-Imidazo[4,5-b]pyridin-2-yl)amino)cyclopentyl)amino)pyrazin-2-yl)-1-methylpyridin-2(1H)-one] | > 10 | 0.0168 | > 40 |
| O=c1ccccn1-c1ccc(N[C@H]2CC[C@H](Nc3nc4cc(CO)ccc4s3)C2)nc1 [Example 84, 6′-(((1S,3S)-3-((5-(Hydroxymethyl)benzo[d]thiazol-2-yl)amino)cyclopentyl)amino)-2H-[1,3′-bipyridin]-2-one] | > 10 | 0.239 | > 40.1 |
| Fc1cccnc1-c1ccc(N[C@H]2CC[C@H](Nc3nc4cccnc4[nH]3)C2)nc1 [Example 30, (1S,3S)—N^1-(3-Fluoro-[2,3′-bipyridin]-6′-yl)-N^3-(3H-imidazo[4,5-b]pyridin-2-yl)cyclopentane-1,3-diamine] | > 10 | 0.0345 | 3.15 |
| O=c1ccc2ccccc2n1-c1ccc(N[C@H]2CC[C@H](Nc3nc4cccnc4[nH]3)C2)nc1 [Example 33, 1-(6-(((1S,3S)-3-((3H-Imidazo[4,5-b]pyridin-2-yl)amino)cyclopentyl)amino)pyridin-3-yl)quinolin-2(1H)-one] | > 10 | – | > 40 |
| Cc1ccc2nc(N[C@H]3CC[C@H](Nc4ccc(-n5ccccc5=O)cn4)C3)oc2c1 [Example 2, 6′-(((1S,3S)-3-((6-Methylbenzo[d]oxazol-2-yl)amino)cyclopentyl)amino)-2H-[1,3′-bipyridin]-2-one] | > 10 | 0.0118 | 13.2 |
| O=c1ccccn1-c1ccc(N[C@H]2CC[C@H](Nc3nc4ccccc4s3)C2)nc1 [Example 7, 6′-(((1S,3S)-3-(Benzo[d]thiazol-2-ylamino)cyclopentyl)amino)-2H-[1,3′-bipyridin]-2-one] | > 10 | 0.324 | 12.6 |
| Fc1cccc(F)c1-c1ccc(N[C@H]2CC[C@H](Nc3nc4cccnc4[nH]3)C2)nc1 [Example 68, (1S,3S)—N^1-(5-(2,6-Difluorophenyl)pyridin-2-yl)-N^3-(3H-imidazo[4,5-b]pyridin-2-yl)cyclopentane-1,3-diamine] | > 10 | – | 6.55 |
